Experimental data taken from patent US20240108006A1, “PESTICIDALLY ACTIVE HETEROAROMATIC COMPOUNDS” (SYNGENTA CROP PROTECTION AG, priority 2021, published 2024).

Key:
Assay type in all cases: in vivo
Spodoptera littoralis = assay: Example B9: Spodoptera littoralis (Egyptian cotton leaf worm), cotton leaf discs, L1 larvae; settings: foliar, 72 h, application rate of 200 ppm, 3 days after infestation, read-out: control in at least one of the three categories (mortality, anti-feedant effect, or growth inhibition)
In short: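 Cotton leaf discs on agar sprayed with aqueous test solutions from 10,000 ppm DMSO stocks, dried, then infested with five L1 larvae. Mortality, anti-feeding and growth inhibition scored against untreated samples 3 days after infestation.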

Diabrotica balteata = assay: Example B2: Diabrotica balteata (corn root worm), maize sprouts, L2 larvae; settings: 96 h, application rate of 200 ppm, 4 days after infestation, read-out: control in at least one of the two categories (mortality or growth inhibition)
Description: Example B2: Diabrotica balteata (Corn Root Worm)
Maize sprouts placed onto an agar layer in 24-well microtiter plates were treated with aqueous test solutions prepared from 10,000 ppm DMSO stock solutions by spraying. After drying, the plates were infested with L2 larvae (6 to 10 per well). The samples were assessed for mortality and growth inhibition in comparison to untreated samples 4 days after infestation.
The following compounds gave an effect of at least 80% control in at least one of the two categories (mortality or growth inhibition) at an application rate of 200 ppm: […]

Plutella xylostella = assay: Example B8: Plutella xylostella (diamond back moth), artificial diet 24-well, eggs; settings: 192 h, application rate of 200 ppm, 8 days after infestation, read-out: effect in at least one of the two categories (mortality or growth inhibition)
In short: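 Artificial diet in 24-well plates treated with aqueous dilutions of DMSO stock (10,000 ppm stock) and dried, then infested with Plutella eggs. Mortality and growth inhibition scored versus untreated samples 8 days after infestation.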

Chilo suppressalis = assay: Example B1: Chilo suppressalis (striped rice stemborer), artificial diet, L2 larvae; settings: 144 h, application rate of 200 ppm, 6 days after infestation, read-out: control in at least one of the three categories (mortality, anti-feedant effect, or growth inhibition)
In short: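 Artificial diet was treated with aqueous test solutions made from 10,000 ppm DMSO stocks, dried, then infested with L2 larvae (6-8 per well). Mortality, anti-feeding effect and growth inhibition were scored against untreated samples 6 days after infestation, and control was counted when any category exceeded untreated.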

Myzus persicae = assay: Example B7: Myzus persicae (green peach aphid), intrinsic activity, sucrose solution 24-well; settings: 120 h, application rate of 12.5 ppm, 5 days after infestation, read-out: control (mortality)
Text: Example B7: Myzus persicae (Green Peach Aphid). Intrinsic Activity
Test compounds prepared from 10,000 ppm DMSO stock solutions were applied by pipette into 24-well microtiter plates and mixed with sucrose solution. The plates were closed with a stretched Parafilm. A plastic stencil with 24 holes was placed onto the plate and infested pea seedlings were placed directly on the Parafilm. The infested plate was closed with a gel blotting paper and another plastic stencil and then turned upside down. The samples were assessed for mortality 5 days after infestation.
The following compounds gave an effect of at least 80% control at an application rate of 12.5 ppm: […]

C[C@H](NC(=O)Nc1cc(C(F)(F)F)c(Cl)cc1Cl)c1ncnn1-c1ncc(C#N)s1 [Example P140, 1-[(1S)-1-[2-(5-cyanothiazol-2-yl)-1,2,4-triazol-3-yl]ethyl]-3-[2,4-dichloro-5-(trifluoromethyl)phenyl]urea]
≥ 80%: percent control (mortality, anti-feedant effect or growth inhibition) at 200 ppm (Spodoptera littoralis) | percent control (mortality or growth inhibition) at 200 ppm (Diabrotica balteata) | percent effect (mortality or growth inhibition) at 200 ppm (Plutella xylostella) | percent control (mortality, anti-feedant effect or growth inhibition) at 200 ppm (Chilo suppressalis)

C[C@H](NC(=O)Nc1cc(Cl)c(Cl)cc1Cl)c1ncnn1-c1ncccn1 [Example P43, 1-[(1S)-1-(2-pyrimidin-2-yl-1,2,4-triazol-3-yl)ethyl]-3-(2,4,5-trichlorophenyl)urea]
≥ 80%: percent control (mortality, anti-feedant effect or growth inhibition) at 200 ppm (Spodoptera littoralis) | percent control (mortality or growth inhibition) at 200 ppm (Diabrotica balteata) | percent effect (mortality or growth inhibition) at 200 ppm (Plutella xylostella) | percent control (mortality, anti-feedant effect or growth inhibition) at 200 ppm (Chilo suppressalis)

CC(NC(=O)Nc1ccc(Br)cc1OC(F)F)c1nccnc1-n1nccn1 (centres unmarked) [Example P261, 1-[4-bromo-2-(difluoromethoxy)phenyl]-3-[1-[3-(triazol-2-yl)pyrazin-2-yl]ethyl]urea]
≥ 80%: percent control (mortality, anti-feedant effect or growth inhibition) at 200 ppm (Spodoptera littoralis) | percent control (mortality or growth inhibition) at 200 ppm (Diabrotica balteata) | percent effect (mortality or growth inhibition) at 200 ppm (Plutella xylostella) | percent control (mortality, anti-feedant effect or growth inhibition) at 200 ppm (Chilo suppressalis)

CC(NC(=O)Nc1cc(OC(F)(F)C(F)F)c(Cl)cc1Cl)c1nccnc1-n1nccn1 (centres unmarked) [Example P258, 1-[2,4-dichloro-5-(1,1,2,2-tetrafluoroethoxy)phenyl]-3-[1-[3-(triazol-2-yl)pyrazin-2-yl]ethyl]urea]
≥ 80%: percent control (mortality or growth inhibition) at 200 ppm (Diabrotica balteata) | percent effect (mortality or growth inhibition) at 200 ppm (Plutella xylostella) | percent control (mortality, anti-feedant effect or growth inhibition) at 200 ppm (Chilo suppressalis)

C[C@H](NC(=O)Nc1cc(C(F)(F)F)c(Cl)cc1Cl)c1ncnn1-c1ncccn1 [Example P178, 1-[2,4-dichloro-5-(trifluoromethyl)phenyl]-3-[(1S)-1-(2-pyrimidin-2-yl-1,2,4-triazol-3-yl)ethyl]urea]
≥ 80%: percent control (mortality, anti-feedant effect or growth inhibition) at 200 ppm (Spodoptera littoralis) | percent control (mortality or growth inhibition) at 200 ppm (Diabrotica balteata) | percent effect (mortality or growth inhibition) at 200 ppm (Plutella xylostella) | percent control (mortality, anti-feedant effect or growth inhibition) at 200 ppm (Chilo suppressalis) | mortality at 12.5 ppm (Myzus persicae)

CC(C)Oc1cc(NC(=O)N[C@@H](C)c2ncnn2-c2ncccn2)c(Cl)cc1Cl [Example P236, 1-(2,4-dichloro-5-isopropoxy-phenyl)-3-[(1S)-1-(2-pyrimidin-2-yl-1,2,4-triazol-3-yl)ethyl]urea]
≥ 80%: percent control (mortality, anti-feedant effect or growth inhibition) at 200 ppm (Spodoptera littoralis) | percent control (mortality or growth inhibition) at 200 ppm (Diabrotica balteata) | percent effect (mortality or growth inhibition) at 200 ppm (Plutella xylostella) | percent control (mortality, anti-feedant effect or growth inhibition) at 200 ppm (Chilo suppressalis) | mortality at 12.5 ppm (Myzus persicae)

C[C@H](NC(=O)Nc1ccc(Cl)c(OC(F)(F)C(F)F)c1)c1ncnn1-c1ncccn1 [Example P35, 1-[4-chloro-3-(1,1,2,2-tetrafluoroethoxy)phenyl]-3-[(1S)-1-(2-pyrimidin-2-yl-1,2,4-triazol-3-yl)ethyl]urea]
≥ 80%: percent control (mortality, anti-feedant effect or growth inhibition) at 200 ppm (Spodoptera littoralis) | percent control (mortality or growth inhibition) at 200 ppm (Diabrotica balteata) | percent effect (mortality or growth inhibition) at 200 ppm (Plutella xylostella) | percent control (mortality, anti-feedant effect or growth inhibition) at 200 ppm (Chilo suppressalis) | mortality at 12.5 ppm (Myzus persicae)

C[C@H](NC(=O)Nc1ccc(C(F)(F)F)cc1C(F)(F)F)c1ncnn1-c1ccc(C#N)cn1 [Example P13, 1-[2,4-bis(trifluoromethyl)phenyl]-3-[(1S)-1-[2-(5-cyano-2-pyridyl)-1,2,4-triazol-3-yl]ethyl]urea]
≥ 80%: percent control (mortality, anti-feedant effect or growth inhibition) at 200 ppm (Spodoptera littoralis) | percent control (mortality or growth inhibition) at 200 ppm (Diabrotica balteata) | percent effect (mortality or growth inhibition) at 200 ppm (Plutella xylostella) | percent control (mortality, anti-feedant effect or growth inhibition) at 200 ppm (Chilo suppressalis)

C[C@@H](NC(=O)Nc1cc(OC(F)(F)C(F)F)c(Cl)cc1Cl)c1nccnc1-c1ncccn1 [Example P136, 1-[2,4-dichloro-5-(1,1,2,2-tetrafluoroethoxy)phenyl]-3-[(1R)-1-(3-pyrimidin-2-ylpyrazin-2-yl)ethyl]urea]
≥ 80%: percent control (mortality or growth inhibition) at 200 ppm (Diabrotica balteata) | percent effect (mortality or growth inhibition) at 200 ppm (Plutella xylostella) | percent control (mortality, anti-feedant effect or growth inhibition) at 200 ppm (Chilo suppressalis)

C[C@H](NC(=O)Nc1cc(C(F)(F)F)c(Cl)cc1Br)c1ncnn1-c1cnccn1 [Example P279, 1-[2-bromo-4-chloro-5-(trifluoromethyl)phenyl]-3-[(1S)-1-(2-pyrazin-2-yl-1,2,4-triazol-3-yl)ethyl]urea]
≥ 80%: percent control (mortality, anti-feedant effect or growth inhibition) at 200 ppm (Spodoptera littoralis) | percent control (mortality or growth inhibition) at 200 ppm (Diabrotica balteata) | percent effect (mortality or growth inhibition) at 200 ppm (Plutella xylostella) | percent control (mortality, anti-feedant effect or growth inhibition) at 200 ppm (Chilo suppressalis)

CC(NC(=O)Nc1ccc(Br)cc1OC(F)F)c1nccnc1-c1ncccn1 (centres unmarked) [Example P241, 1-[4-bromo-2-(difluoromethoxy)phenyl]-3-[1-(3-pyrimidin-2-ylpyrazin-2-yl)ethyl]urea]
≥ 80%: percent control (mortality, anti-feedant effect or growth inhibition) at 200 ppm (Spodoptera littoralis) | percent effect (mortality or growth inhibition) at 200 ppm (Plutella xylostella) | percent control (mortality, anti-feedant effect or growth inhibition) at 200 ppm (Chilo suppressalis) | mortality at 12.5 ppm (Myzus persicae)

C[C@H](NC(=O)Nc1cc(C(F)(F)F)cnc1Cl)c1ncnn1-c1ncccn1 [Example P127, 1-[2-chloro-5-(trifluoromethyl)-3-pyridyl]-3-[(1S)-1-(2-pyrimidin-2-yl-1,2,4-triazol-3-yl)ethyl]urea]
≥ 80%: percent control (mortality, anti-feedant effect or growth inhibition) at 200 ppm (Spodoptera littoralis) | percent effect (mortality or growth inhibition) at 200 ppm (Plutella xylostella) | percent control (mortality, anti-feedant effect or growth inhibition) at 200 ppm (Chilo suppressalis) | mortality at 12.5 ppm (Myzus persicae)

C[C@H](NC(=O)Nc1cc(C(F)(F)F)ccc1Cl)c1ncnn1-c1ncccn1 [Example P14, 1-[2-chloro-5-(trifluoromethyl)phenyl]-3-[(1S)-1-(2-pyrimidin-2-yl-1,2,4-triazol-3-yl)ethyl]urea]
≥ 80%: percent control (mortality, anti-feedant effect or growth inhibition) at 200 ppm (Spodoptera littoralis) | percent control (mortality or growth inhibition) at 200 ppm (Diabrotica balteata) | percent effect (mortality or growth inhibition) at 200 ppm (Plutella xylostella) | percent control (mortality, anti-feedant effect or growth inhibition) at 200 ppm (Chilo suppressalis)

C[C@H](NC(=O)Nc1cc(OC(F)(F)C(F)C(F)(F)F)c(Cl)cc1Cl)c1ncnn1-c1ncccn1 (stereo partly drawn) [Example P223, 1-[2,4-dichloro-5-(1,1,2,3,3,3-hexafluoropropoxy)phenyl]-3-[(1S)-1-(2-pyrimidin-2-yl-1,2,4-triazol-3-yl)ethyl]urea]
≥ 80%: percent control (mortality, anti-feedant effect or growth inhibition) at 200 ppm (Spodoptera littoralis) | percent control (mortality or growth inhibition) at 200 ppm (Diabrotica balteata) | percent effect (mortality or growth inhibition) at 200 ppm (Plutella xylostella) | percent control (mortality, anti-feedant effect or growth inhibition) at 200 ppm (Chilo suppressalis)

C[C@H](NC(=O)N1CCc2cc(C(F)(F)F)ccc21)c1ncnn1-c1ncccn1 [Example P57, N-[(1S)-1-(2-pyrimidin-2-yl-1,2,4-triazol-3-yl)ethyl]-5-(trifluoromethyl)indoline-1-carboxamide]
≥ 80%: percent control (mortality, anti-feedant effect or growth inhibition) at 200 ppm (Spodoptera littoralis) | percent control (mortality or growth inhibition) at 200 ppm (Diabrotica balteata) | percent effect (mortality or growth inhibition) at 200 ppm (Plutella xylostella) | mortality at 12.5 ppm (Myzus persicae)

C[C@H](NC(=O)N(C)c1ccc(Cl)cc1Cl)c1ncnn1-c1ncccn1 [Example P114, 1-(2,4-dichlorophenyl)-1-methyl-3-[(1S)-1-(2-pyrimidin-2-yl-1,2,4-triazol-3-yl)ethyl]urea]
≥ 80%: percent control (mortality, anti-feedant effect or growth inhibition) at 200 ppm (Spodoptera littoralis) | percent control (mortality or growth inhibition) at 200 ppm (Diabrotica balteata) | percent effect (mortality or growth inhibition) at 200 ppm (Plutella xylostella) | percent control (mortality, anti-feedant effect or growth inhibition) at 200 ppm (Chilo suppressalis)
